Here are results for nine compounds from patent US10351530B2, “Arylcyclohexyl pyrazoles as NRF2 regulators” (GlaxoSmithKline Intellectual Property Development Limited, priority 2015, dated 2019).

Structures are written as SMILES.

One assay has as its target T1, NRF2/Keap1 (Homo sapiens, UniProt Q14145).
T1 construct: full length NRF2 protein and full length Keap1 protein (Keap1 exists a dimer) are used
The assay can be described thus: NRF2-Keap1 TR-FRET Assay (full length NRF2 and full length Keap1). Format: binding. Particulars: 25 nM Keap1-FlagHis, 50 nM biotin-NRF2 added. The text has this: In the NRF2-Keap1 TR-FRET (time-resolved fluorescence resonance energy transfer) assay, full length NRF2 protein and full length Keap1 protein (Keap1 exists a dimer) are used. The assay detects the ability of compound to displace the binding of FlagHis-tagged Keap1 with biotinylated, Avi-tagged NRF2 protein. Biotin-NRF2 binds to streptavidin-europium (a component of the detection mix) and Keap1-FlagHis is recognized by anti-Flag APC (allophycocyanin) antibody (also a component of the detection mix). If binding occurs between the two proteins, there will be an energy transfer from the Eu+3 (donor) at 615 nm to the APC (acceptor) at 665 nm. A potential Keap1 inhibitor will cause a reduction in the TR-FRET signal by interfering with the binding of Keap1 to NRF2.
One hundred nanoliters of 100× compound dose response curves (serial 3-fold dilutions) in DMSO are stamped using an Echo liquid handling system (Labcyte) into 384-well, low volume, black assay plates (Greiner, #784076), with DMSO in columns 6 and 18. The top concentration of compound is located in columns 1 and 13. All reagents are diluted in assay buffer (50 mM Tris, pH 8.0, 5 mM MgCl2, 100 mM NaCl, 0.005% BSA, 1 mM DTT, and 2 mM CHAPS). The BSA, DTT, and CHAPS are added to the assay buffer on the day of assay. Using a Multidrop Combi (Thermo Electron Corporation) equipped with a metal tip dispenser, 5 ul of 25 nM Keap1-FlagHis protein is added to all wells of the compound plate, with the exception of the wells in column 18. Wells in column 18 receive 5 ul of assay buffer instead. Plates are centrifuged at 500 rpm for 1 minute, covered with a plate lid, and incubated at 37° C. for 2.25 hours. Plates are then removed from the incubator and allowed to cool to RT for 15 minutes. Five microliters of 50 nM biotin-NRF2 protein is then added to all wells of the plates and the plates are spun at 500 rpm for 1 minute, followed by incubating at 4° C. for 1.25 hours. The plates are then allowed to warm to RT for 15 minutes, followed by the addition of 10 ul of detection mix (1 nM Streptavidin Eu+ W1024 and 5 ug/ml mouse anti-DYKDDDDK IgG conjugated to SureLight APC antibody; both from Columbia Biosciences) to all wells. Plates are spun at 500 rpm for 1 minute, incubated for 1 hour at RT, and read on an Envision plate reader using a 320 nm excitation filter and 615 nm and 665 nm emission filters. Compound response (% inhibition) and potency (pIC50) are calculated based on the ratio of the two emissions (665 nm/615 nm) and then the transformed data is normalized against controls in the assay (control 1=1% DMSO in the presence of NRF2 and Keap1 protein and control 2=1% DMSO in the absence of protein). Data analysis is handled using the software package Abase XE (Surrey, United Kingdom). The % inhibition values are calculated from the ratio (transformed) data by the equation: 100−(100*(compound response-average control 2)/(average control 1−average control 2)).
For calculation of pIC50s, Abase XE uses a four parameter equation.
Background: Time-resolved FRET reads energy transfer from a long-lived donor to a nearby acceptor.

The target of a further assay is T2, Keap1/NRF2 (Homo sapiens, UniProt Q14145).
T2 construct: Keap1 (321-609) is diluted to 40 nM (2×) in 1× assay buffer
T2 sequence (Q14145 321-609): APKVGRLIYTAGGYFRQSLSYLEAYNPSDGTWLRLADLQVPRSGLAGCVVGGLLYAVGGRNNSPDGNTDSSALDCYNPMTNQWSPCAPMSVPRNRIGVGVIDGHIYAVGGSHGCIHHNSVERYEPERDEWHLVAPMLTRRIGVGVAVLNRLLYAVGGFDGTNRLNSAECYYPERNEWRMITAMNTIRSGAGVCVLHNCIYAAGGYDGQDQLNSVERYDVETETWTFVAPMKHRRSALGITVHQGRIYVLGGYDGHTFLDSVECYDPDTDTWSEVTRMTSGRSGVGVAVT
The assay can be described thus: NRF2-Keap1 FP Assay (Kelch domain (321-609) of Keap1, TAMRA-labeled NRF2 ETGE peptide). The conditions noted are these: Keap1 (321-609) 20 nM, Tamra labeled peptide 8 nM. Type of assay: binding. The text has this: One model for the NRF2-Keap1 interaction is through two binding sites in the Neh2 domain on NRF2. The two sites are referred to as the DLG binding motif (latch domain, uM affinity) and the ETGE binding motif (hinge domain, nM affinity). The Keap1 protein consists of an N-terminal region (NTR), a broad complex, tramtrack, and brick a′ brac domain (BTB), an intervening region (IVR), a double glycine repeat domain (DGR or Kelch), and a C-terminal region. The DLG and ETGE motifs of NRF2's Neh2 domain bind to the Kelch domain of Keap1 at different affinities. In the Keap1 Kelch fluorescence polarization (FP) assay, a TAMRA-labeled 16 mer peptide (AFFAQLQLDEETGEFL) containing the ETGE motif of NRF2 and the Kelch domain (321-609) of Keap1 is used. The assay determines if a compound interferes with the binding between Keap1 […] and the TAMRA-labeled peptide. Binding of TAMRA-labeled NRF2 peptide to Keap1 (321-609) results in a high FP signal. If a compound interferes with the binding between the peptide and the protein, it will cause the assay signal to decrease. Thus, assay signal is inversely proportional to binding inhibition.
100 nl of 100× compound dose response curves (serial 3-fold dilutions) in DMSO are stamped using an Echo liquid handling system (Labcyte) into 384-well low volume black assay plates (Greiner, #784076), with DMSO in columns 6 and 18. The top concentration of compound is located in columns 1 and 13. Keap1 (321-609) is diluted to 40 nM (2×) in 1× assay buffer (50 mM Tris, pH 8.0, 100 mM NaCl, 5 mM MgCl2, 1 mM DTT, 2 mM CHAPS, and 0.005% BSA) and 5 ul is added using a Multidrop Combi (Thermo Electron Corporation) equipped with a metal tip dispenser to all wells of the compound plate, except column 18. Column 18 receives only 5 ul of assay buffer. Immediately, 5 uL of 16 nM (2×) of Tamra labeled peptide (AFFAQLQLDEETGEFL, 21st Century Biochemicals) is added to all wells of the plate. The plates are spun at 500 rpm for 1 min, incubated for 1 hr at room temperature, and read on an Analyst GT (Molecular Devices) equipped with excitation (530/25 nm) and emission (580/10 nm) filters designed for Tamra probes. A 561 nm dichroic mirror is also used in the Analyst. The final assay concentrations of Keap1 (321-609) and Tamra labeled peptide are 20 nM and 8 nM, respectively. Fluorescence measurements, represented as mP, are used in the transformation of the data. Compound activity is calculated based on percent inhibition, normalized against controls in the assay (Control 1 contains the Tamra peptide and Keap1 (321-609) together (0% response) and control 2 contains the Tamra peptide alone (100% response)). Data analysis is handled using the software package Abase XE (Surrey, United Kingdom. The % inhibition values are calculated by the equation: 100−(100*((compound response-average control 2)/(average control 1−average control 2))). For calculation of pIC50s, Abase XE uses a four parameter equation.

Assay [1] concerns NQO1 specific enzyme activity in BEAS-2B cells. The assay can be described thus: BEAS-2B NQO1 MTT Assay. Type of assay: cell-based. The conditions noted are these: NQO1 specific activity induction. The text has this:
NAD(P)H:quinone oxidoreductase 1 (NQO1), also called DT diaphorase, is a homodimeric FAD-containing enzyme that catalyzes obligatory NAD(P)H-dependent two-electron reductions of quinones and protects cells against the toxic and neoplastic effects of free radicals and reactive oxygen species arising from one-electron reductions. The transcription of NQO1 is finely regulated by NRF2, and thus NQO1 activity is a good marker for NRF2 activation. On day one, frozen BEAS-2B cells (ATCC) are thawed in a water bath, counted, and re-suspended at a concentration of 250,000 cells/mL. Fifty microliters of cells are plated in 384 well black clear-bottomed plates. Plates are incubated at 37° C., 5% CO2 overnight. On day two, plates are centrifuged and 50 nL of compound or controls are added to the cells. Plates are then incubated at 37° C., 5% CO2 for 48 hours. On day four, medium is aspirated from the plate and crude cell lysates are made by adding 13 uL of 1× Cell Signaling Technologies lysis buffer with 1 Complete, Mini, EDTA-free Protease Inhibitor Tablet (Roche) for each 10 mL of lysis buffer. After lysis plates are incubated for 20 minutes at room temperature. Two microliters of lysate are removed for use in Cell Titer Glo assay (Promega) and MTT cocktail is prepared (Prochaska et. al. 1998) for measurement of NQO1 activity. Fifty microliters of MTT cocktail is added to each well, plate is centrifuged, and analyzed on an Envision plate reader (Perkin Elmer) using Absorbance 570 nm label for 30 minutes. Product formation is measured kinetically and the pEC50 of NQO1 specific activity induction is calculated by plotting the change in absorbance (Delta OD/min) versus the log of compound concentration followed by 3-parameter fitting.

T1 sequence (Q14145 whole entry): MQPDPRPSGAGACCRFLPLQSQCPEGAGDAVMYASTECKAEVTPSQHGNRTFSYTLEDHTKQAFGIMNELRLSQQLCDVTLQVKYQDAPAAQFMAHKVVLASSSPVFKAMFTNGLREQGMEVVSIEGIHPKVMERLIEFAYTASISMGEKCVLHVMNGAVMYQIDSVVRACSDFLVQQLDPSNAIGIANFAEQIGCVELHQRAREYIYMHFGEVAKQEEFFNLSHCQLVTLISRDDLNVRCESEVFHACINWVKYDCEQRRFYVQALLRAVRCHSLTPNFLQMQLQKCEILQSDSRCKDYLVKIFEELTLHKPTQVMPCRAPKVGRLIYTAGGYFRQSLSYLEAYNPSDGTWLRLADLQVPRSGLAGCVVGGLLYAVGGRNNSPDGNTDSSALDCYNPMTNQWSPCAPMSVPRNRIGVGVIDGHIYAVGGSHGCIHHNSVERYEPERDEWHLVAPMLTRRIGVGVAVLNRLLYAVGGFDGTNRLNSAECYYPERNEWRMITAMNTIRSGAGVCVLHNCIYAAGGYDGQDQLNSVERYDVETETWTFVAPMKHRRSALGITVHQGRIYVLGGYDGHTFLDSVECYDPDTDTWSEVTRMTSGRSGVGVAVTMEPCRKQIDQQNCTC

One may read the IC50 as the point on the concentration scale where inhibition reaches its midpoint. A high value points to lower potency. For orientation: EC50 means the concentration at which the effect is half-maximal. Lower therefore signals higher potency in that assay. As to `CCCC1CCc2cnn([C@@H]3CCC[C@H](c4cccc(-n5ncc(C(=O)O)c5C5CC5)c4)C3)c21` (mixture of isomers) [Example 16, 5-Cyclopropyl-1-[3-(3-{6-propyl-1H,4H,5H,6H-cyclopenta[c]pyrazol-1-yl}cyclohexyl)phenyl]-1H-pyrazole-4-carboxylic Acid], the IC50 against NRF2/Keap1 was 1 to 10 µM; at Keap1/NRF2 it was 0.1 to 1 µM. Also, the EC50 in assay [1] (Homo sapiens, BEAS-2B, 48 h) fell in the range of 1 to 10 µM.
Take `CC1(C)CCc2cnn([C@H]3CCC[C@@H](c4cccc(-n5ncc(C(=O)O)c5C5CC5)c4)C3)c21` (racemic) [Example 24, 5-Cyclopropyl-1-(3-(-3-(6,6-dimethyl-5,6-dihydrocyclopenta[c]pyrazol-1(4H)-yl)cyclohexyl)phenyl)-1H-pyrazole-4-carboxylic Acid]: the IC50 at NRF2/Keap1 was in the range of 1 to 10 µM; against Keap1/NRF2, 0.1 to 1 µM. In assay [1] (Homo sapiens, BEAS-2B, 48 h), this compound had an EC50 of 1 to 10 µM.
In the case of `CC1CCN(C(=O)C2CCCC(c3cccc(-n4ncc(C(=O)O)c4C4CC4)c3)C2)C1` (racemic) [Example 25, 5-Cyclopropyl-1-{3-[3-(3-methyl-pyrrolidine-1-carbonyl)-cyclohexyl]-phenyl}-1H-pyrazole-4-carboxylic Acid], the IC50 was in the range of 1 to 10 µM on NRF2/Keap1 and 0.1 to 1 µM on Keap1/NRF2. The compound further yielded a concentration giving a half-maximal response (EC50) in assay [1] (Homo sapiens, BEAS-2B, 48 h) of 1 to 10 µM.
With `CCOC[C@@H]1CCCN1C(=O)C1CCCC(c2cccc(-n3ncc(C(=O)O)c3C3CC3)c2)C1` (single isomer, unassigned) [Example 18h], the IC50 at NRF2/Keap1 and against Keap1/NRF2 was 1 to 10 µM in each case. The EC50 in assay [1] (48 hours) fell in the range of 1 to 10 µM.
Turning to `CCCCC1CCc2cnn([C@@H]3CCC[C@@H](c4cccc(-n5ncc(C(=O)O)c5C5CC5)c4)C3)c21` (stereo in doubt) [Example 37, 1-(3-((1,3-cis)-3-(6-Butyl-5,6-dihydrocyclopenta[c]pyrazol-1(4H)-yl)cyclohexyl)phenyl)-5-cyclopropyl-1H-pyrazole-4-carboxylic Acid], the IC50 against NRF2/Keap1 lay in the range of 1 to 10 µM; against Keap1/NRF2 it was 0.1 to 1 µM. Moreover, the EC50 in assay [1] (48 hours) is 1 to 10 µM.
As to `O=C(O)c1cnn(-c2cccc(C3CCC(n4ncc5c4CCCC5=O)C3)c2)c1C1CC1` (stereo not drawn) [Example 15, 5-Cyclopropyl-1-{3-[3-(4-oxo-4,5,6,7-tetrahydro-indazol-1-yl)-cyclopentyl]-phenyl}-1H-pyrazole-4-carboxylic Acid], the IC50 lay in the range of 1 to 10 µM at NRF2/Keap1 and 0.1 to 1 µM on Keap1/NRF2. In addition, in assay [1] (Homo sapiens, BEAS-2B, 48 h), the EC50 fell in the range of 1 to 10 µM.
With `O=C(O)c1cnn(-c2cccc(C3CCCC(C(=O)N4CCCCCC4)C3)c2)c1C1CC1` (stereo not drawn) [Example 20, 1-(3-(3-(Azepane-1-carbonyl)cyclohexyl)phenyl)-5-cyclopropyl-1H-pyrazole-4-carboxylic Acid], the IC50 on NRF2/Keap1 lay within 1 to 10 µM; against Keap1/NRF2, 0.1 to 1 µM. The compound also yielded an EC50 in assay [1] (Homo sapiens, BEAS-2B, 48 h) of 1 to 10 µM.
`CN(C(=O)C1CCCC(c2cccc(-n3ncc(C(=O)O)c3C3CC3)c2)C1)C1CCCCC1` (stereo not drawn) [Example 21, 1-(3-(3-(Cyclohexyl(methyl)carbamoyl)cyclohexyl)phenyl)-5-cyclopropyl-1H-pyrazole-4-carboxylic Acid]: the results for the IC50 against NRF2/Keap1 and against Keap1/NRF2 were 1 to 10 µM and 0.1 to 1 µM, respectively. Moreover, the EC50 in assay [1] (Homo sapiens, BEAS-2B, 48 h) fell in the range of 1 to 10 µM.
In the case of `CCCC1CCCCC1N(C)C(=O)C1CCCC(c2cccc(-n3ncc(C(=O)O)c3C3CC3)c2)C1` (stereo not drawn) [Example 22, 5-Cyclopropyl-1-(3-(3-(methyl(2-propylcyclohexyl)carbamoyl)cyclohexyl)phenyl)-1H-pyrazole-4-carboxylic Acid], the figures for the IC50 against NRF2/Keap1 and at Keap1/NRF2 were 1 to 10 µM and 0.1 to 1 µM, respectively. The same compound displayed an EC50 in assay [1] (Homo sapiens, BEAS-2B, 48 h) of 1 to 10 µM.
